Patent US20240252454A1, “COMPOSITION COMPRISING AN INHIBITOR OF MITOCHONDRIAL TRANSCRIPTION” (LEAD DISCOVERY CENTER GMBH, priority 2021, published 2024)

Key:
[1] = PK and toxicological studies, plasma and liver concentrations; type: in vivo; details: oral combination of the IMT and Venetoclax in 0.5% methyl cellulose in water, NBSGW mice, 4 hours, plasma and liver (FIG. 4)
Description: Combinations s of 2-[(3R)-1-[(2R)-2-[4-(2-chloro-4-fluoro-phenyl)-2-oxo-chromen-7-yl]oxypropanoyl]-3-piperidyl]acetic acid and Venetoclax were administered orally in a formulation of 0.5% methyl cellulose in water, before the respective substance concentrations (y-axis) of Venetoclax (left) or 2-[(3R)-1-[(2R)-2-[4-(2-chloro-4-fluoro-phenyl)-2-oxo-chromen-7-yl]oxypropanoyl]-3-piperidyl]acetic acid (right) after 4 hours and extraction from blood plasma or liver tissue were analysed by LC-MS. Error bars indicate the standard deviation around the mean of the multiple measurements.
For this, a vehicle formulation suitable for the oral administration of the combination of Venetoclax and 2-[(3R)-1-[(2R)-2-[4-(2-chloro-4-fluoro-phenyl)-2-oxo-chromen-7-yl]oxypropanoyl]-3-piperidyl]acetic acid was prepared to examine its pharmacokinetic suitability. Since the formulations based on ethanol, PEG-400 and Phosal that have been published for Venetoclax have not proven to be suitable for generating an administrable solution or suspension of IMT and Venetoclax, a simplified formulation of 0.5% methyl cellulose in water was prepared, which was tested initially in PK and toxicological studies in NBSGW mice (FIG. 4). […] On the other hand, doses that could be safely used were established in this mouse model, with which the subsequent studies could be carried out.

A2780 = assay: CellTiter-GLO (CTG) assay, combinatorial matrix; type: cell-based; details: for Measured residual activity (%) based on an untreated control group (=100%): A2780, 72 h, cellular ATP content (CellTiter-GLO)
Description: To determine the in vitro cellular viability, cellular ATP concentrations were measured using a luminescence-based homogenous assay format, as described here. […] Optimal cell density for each cell line was determined to guarantee linearity. For viability assays with compounds, cells were then seeded at a density of 200 to 1000 per well in 25 μl in 384-well plates (Greiner Bio-One, Frickenhausen, Germany). After overnight incubation at 37° C./5% CO2, 25 nl or 75 nl compounds were added to each sample well by using BIOMEK FXP Laboratory Automation Workstation (Beckman Coulter, USA). Wells with cells and 0.1% or 0.3% DMSO in culture medium were used as positive controls, wells with cells and 10 μM staurosporine (Selleck Chemicals, Huston, USA) in culture medium were used as negative controls. Upon incubation with compounds for 72 h at 37° C./5% CO2 25 μl Cell Titer Glo reagent (Promega, Madison, USA, European Pat. No. 1131441, U.S. Pat. Nos. 7,083,911, 7,452,663 and 7,732,128) 1:2 diluted with cell culture medium) was added to each well to determine cell viability. 384well-plates were placed for 2 min on an orbital microplate shaker and incubated for further 10 min at room temperature resulting in a stabilization of light signal. Luminescence was measured by Envision Plate Reader (Perkin Elmer, USA).
All in vitro cell culture experiments were carried out under near physiological glucose concentrations (5 mM) in at least two independent replicates.

HEC59 = assay: CellTiter-GLO (CTG) assay, combinatorial matrix; type: cell-based; details: 30 μM to 15 nM IMT + 30 μM to 40 nM BAY-876
[2] = tested on: A2780 ovarian carcinoma xenograft; assay: in vivo xenograft study with IMT and MEKi in A2780
Description: Time course of tumour growth (top) and body weight change (bottom). Transplant with A2780 on day 0, stratification on day six into six groups (n=8). Treatment with vehicle formulation, twice daily 25 mg/kg or 12.5 mg/kg Selumetinib, once daily 100 mg/kg (3S)-1-[(2R)-2-[4-(2-chloro-4-fluoro-phenyl)-2-oxo-chromen-7-yl]oxypropanoyl]piperidine-3-carboxylic acid, or the combination of IMT with 12.5 mg/kg MEKi or 25 mg/kg MEKi as indicated. Error bars indicate the standard deviation of the respective group. * indicates significant differences from the control group (nonparametric Whitnes-U test, p<0.05).
Female NMRI: nu/nu mice were injected subcutaneously with the ovarian carcinoma cell line and, after reaching a palpable tumour volume of 0.2 cm3, were randomized and divided into groups of eight animals each. In addition to a control group, which was administered only with the vehicle formulation, additional groups were given 100 mg/kg (3S)-1-[(2R)-2-[4-(2-chloro-4-fluoro-phenyl)-2-oxo-chromen-7-yl]oxypropanoyl]piperidine-3-carboxylic acid, 12.5 mg/kg AZD6244, 25 mg/kg AZD6244 or the combination of 100 mg/kg (3S)-1-[(2R)-2-[4-(2-chloro-4-fluoro-phenyl)-2-oxo-chromen-7-yl]oxypropanoyl]piperidine-3-carboxylic acid and 12.5 or 25 mg/kg AZD6244 was administered. The substance was administered orally over 21 days, twice daily in 25% PEG400, 57% HPbCD. […]

In the case of `CC1(C)CCC(CN2CCN(c3ccc(C(=O)NS(=O)(=O)c4ccc(NCC5CCOCC5)c([N+](=O)[O-])c4)c(Oc4cnc5[nH]ccc5c4)c3)CC2)=C(c2ccc(Cl)cc2)C1` [Venetoclax], the “PK parameters, in particular the plasma and tissue concentrations” value [1] is reported as “do not significantly influence one another”.

With `C[C@@H](Oc1ccc2c(-c3ccc(F)cc3Cl)cc(=O)oc2c1)C(=O)N1CCC[C@H](C(=O)O)C1` [(3S)-1-[(2R)-2-[4-(2-chloro-4-fluoro-phenyl)-2-oxo-chromen-7-yl]oxypropanoyl]piperidine-3-carboxylic acid] the “Measured residual activity (%) based on an untreated control group (=100%)” value (from here on “Measured residual activity (%) based”) (A2780; Teriflunomide 0 = IMT alone at the concentration (μM) in c1 of the row, IMT 0.12 µM) was 32%, the “Measured residual activity (%) based” value (A2780; Teriflunomide 0 = IMT alone at the concentration (μM) in c1 of the row, IMT 15 µM) was 28% and the “Measured residual activity (%) based” value (A2780; Teriflunomide 0.04 (μM) + IMT (μM) (30-0), IMT 0.12 µM) was 31%. For the same molecule, the “Measured residual activity (%) based” value (A2780; Teriflunomide 0.04 (μM) + IMT (μM) (30-0), IMT 0.47 µM) was 28%, the “Measured residual activity (%) based” value (A2780; Teriflunomide 0.04 (μM) + IMT (μM) (30-0), IMT 7.5 µM) was 27% and the “Measured residual activity (%) based” value (A2780; Teriflunomide 0.1 (μM) + IMT at the concentration (μM) in c1 of the row (30-0), IMT 0.23 µM) was 29%. The “Measured residual activity (%) based” value (A2780; Teriflunomide 0.1 (μM) + IMT at the concentration (μM) in c1 of the row (30-0), IMT 7.5 µM) was 22%, the “Measured residual activity (%) based” value (A2780; Teriflunomide 0.4 (μM) + IMT at the concentration (μM) in c1 of the row (30-0), IMT 0.06 µM) was 32% and the “Measured residual activity (%) based” value (A2780; Teriflunomide 0.4 (μM) + IMT at the concentration (μM) in c1 of the row (30-0), IMT 7.5 µM) was 22%. The “Measured residual activity (%) based” value (A2780; Teriflunomide 0.4 (μM) + IMT at the concentration (μM) in c1 of the row (30-0), IMT 15 µM) was 25%, the “Measured residual activity (%) based” value (A2780; Teriflunomide 1.1 (μM) + IMT at the concentration (μM) in c1 of the row (30-0), IMT 0.06 µM) was 30% and the “Measured residual activity (%) based” value (A2780; Teriflunomide 1.1 (μM) + IMT at the concentration (μM) in c1 of the row (30-0), IMT 0.94 µM) was 23%. The “Measured residual activity (%) based” value (A2780; Teriflunomide 3.3 (μM) + IMT at the concentration (μM) in c1 of the row (30-0), IMT 0.06 µM) was 24%, the “Measured residual activity (%) based” value (A2780; Teriflunomide 3.3 (μM) + IMT at the concentration (μM) in c1 of the row (30-0), IMT 0.47 µM) was 23% and the “Measured residual activity (%) based” value (A2780; Teriflunomide 3.3 (μM) + IMT at the concentration (μM) in c1 of the row (30-0), IMT 30 µM) was 22%. For the same molecule, the “Measured residual activity (%) based” value (A2780; Teriflunomide 10 (μM) + IMT at the concentration (μM) in c1 of the row (30-0), IMT 0.12 µM) was 23%, the “Measured residual activity (%) based” value (A2780; Teriflunomide 10 (μM) + IMT at the concentration (μM) in c1 of the row (30-0), IMT 0.94 µM) was 19% and the “Measured residual activity (%) based” value (A2780; Teriflunomide 30 (μM) + IMT at the concentration (μM) in c1 of the row (30-0), IMT 0.03 µM) was 19%. For the same molecule, the “Measured residual activity (%) based” value (A2780; Teriflunomide 30 (μM) + IMT at the concentration (μM) in c1 of the row (30-0), IMT 30 µM) was 13%, the “combination of IMT and GLUTi compared to treatment with only the GLUTi BAY-876 alone” value (A2780; A2780, CTG matrix, 30 μM to 15 nM IMT + 30 μM to 40 nM BAY-876) was “advantage of the combination” and the “combination of IMT and GLUTi compared to treatment with only the GLUTi BAY-876 alone” value (HEC59) was “advantage of the combination”. The “final tumour volume after completion of the study” value ([2]; 100 mg/kg IMT + 12.5 or 25 mg/kg AZD6244, oral, 21 days, compared to the same amounts of MEK inhibitor alone (FIG. 2)) was “advantage of the combination treatment” and the “tolerability (changes in body weight, acute overt effects)” value ([2]; combination administration of IMT and AZD6244 over the course of the study) was “well tolerated”.
